# According to US20240067632A1, “WEE1 Degrading Compounds and Uses Thereof” (Bristol-Myers Squibb Company, priority 2022, published 2024):
# What was measured:
# MKN45 cells = assay: MKN45 cell proliferation assay (Cell-Titer-Glo, 120 h); format: cell-based; details: for EC50: Homo sapiens, MKN-45, 120 h, Cell-Titer-Glo, growth inhibition, read-out: MKN45 Cell Prolif. 120 hr (EC50); for MKN45 Cell Prolif. 120 hr (Ymin-Obs): minimal percent of DMSO control observed in the concentrations tested
# Outline: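 Growth inhibition was read as blank-corrected Cell-Titer-Glo luminescence expressed as percent DMSO control after 120 h at 37 C, 400 cells/well. Compounds tested in triplicate as 10-point half-log series from 1 or 10 uM, 0.1% DMSO; four-parameter fit gave EC50, and lowest observed percent control was reported as Ymin-obs.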
# WEE1 = molecular target: T1, WEE1 (Homo sapiens, UniProt P30291+Q96SW2); assay: WEE1-ePL degradation assay (LentiX-WEE1-ePL-GSPT1-ND cells, InCELL Hunter luminescence, 4 h); format: cell-based; details: 293T-LentiX WEE1-ePL cells; for 293T-LentiX WEE1-ePL Degradation 4 hr (Ymin): lower limit of the fit (0 = luciferase inhibitor, Ymax = DMSO control); for DC50: read-out: 293T-LentiX WEE1-ePL Degradation 4 hr (EC50)
# T1 construct: C-terminal ePL-tagged (DiscoverX, Fremont, CA) full-length WEE1 expression construct; expressed in transfected cells; host or cells: LentiX-HEK293T (Invitrogen), lentiviral transduction; co-expressing GSPT1-GN (G576N, lacking the first 158 amino acids)
# Outline: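 LentiX-HEK293T cells stably expressing C-terminally ePL-tagged full-length WEE1 were treated with compounds in a 10-point, 3-fold dilution series starting at 1 uM or 10 uM for 4 h at 37 °C. Remaining WEE1-ePL was detected by InCELL Hunter luminescence, and EC50, Ymin and Ymax came from a four-parameter logistic fit against DMSO control.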
Structure (SMILES),EC50 (MKN45 cells) [nM],MKN45 Cell Prolif. 120 hr (Ymin-Obs) (MKN45 cells),293T-LentiX WEE1-ePL Degradation 4 hr (Ymin) (WEE1),DC50 (WEE1) [nM]
"CC(C)(O)c1ccc2cc(CN3CC[C@H](Oc4ccc5c(c4)CN(C4CCC(=O)NC4=O)C5=O)C3)ccc2n1 (stereo partly drawn) [3-(5-{[(3S)-1-{[2-(2-hydroxypropan-2-yl)quinolin-6-yl]methyl}pyrrolidin-3-yl]oxy}-1-oxo-2,3-dihydro-1H-isoindol-2-yl)piperidine-2,6-dione]",14.1,11.2475,32.75,4.09
"COC(C)(C)c1ccc2cc(CN3CC[C@H](Oc4ccc5c(c4)CN(C4CCC(=O)NC4=O)C5=O)C3)ccc2n1 (stereo partly drawn) [3-(5-{[(3S)-1-{[2-(2-methoxypropan-2-yl)quinolin-6-yl]methyl}pyrrolidin-3-yl]oxy}-1-oxo-2,3-dihydro-1H-isoindol-2-yl)piperidine-2,6-dione]",2.98,6.21,32.5,2.6
"O=C1CCC(N2Cc3cc(O[C@H]4CCN(Cc5ccc6nc(N7CCCC(F)(F)C7)ccc6c5)C4)ccc3C2=O)C(=O)N1 (stereo partly drawn) [3-(5-{[(3S)-1-{[2-(3,3-difluoropiperidin-1-yl)quinolin-6-yl]methyl}pyrrolidin-3-yl]oxy}-1-oxo-2,3-dihydro-1H-isoindol-2-yl)piperidine-2,6-dione]",11.2,12.35,25.84,18.5
"CC1(C)CCN(c2ccc3cc(CN4CC[C@H](Oc5ccc6c(c5)CN(C5CCC(=O)NC5=O)C6=O)C4)ccc3n2)C1=O (stereo partly drawn) [3-(5-{[(3S)-1-{[2-(3,3-dimethyl-2-oxopyrrolidin-1-yl)quinolin-6-yl]methyl}pyrrolidin-3-yl]oxy}-1-oxo-2,3-dihydro-1H-isoindol-2-yl)piperidine-2,6-dione]",3.88,7.37,29.67,7.36
"CC1(C)COCCN1c1ncc2cc(CN3CC[C@H](Oc4ccc5c(c4)CN(C4CCC(=O)NC4=O)C5=O)C3)ccc2n1 (stereo partly drawn) [3-(5-{[(3S)-1-{[2-(3,3-dimethylmorpholin-4-yl)quinazolin-6-yl]methyl}pyrrolidin-3-yl]oxy}-1-oxo-2,3-dihydro-1H-isoindol-2-yl)piperidine-2,6-dione]",17.6,17.3,31.5,4.82
"CC1(C)COCCN1c1ccc2cc(CN3CC[C@H](Oc4ccc5c(c4)CN(C4CCC(=O)NC4=O)C5=O)C3)ccc2n1 (stereo partly drawn) [3-(5-{[(3S)-1-{[2-(3,3-dimethylmorpholin-4-yl)quinolin-6-yl]methyl}pyrrolidin-3-yl]oxy}-1-oxo-2,3-dihydro-1H-isoindol-2-yl)piperidine-2,6-dione]",2.08,9.02,34,2.84
"O=C1CCC(N2Cc3cc(O[C@H]4CCN(Cc5ccc6nc(N7CC(O)C7)ccc6c5)C4)ccc3C2=O)C(=O)N1 (stereo partly drawn) [3-(5-{[(3S)-1-{[2-(3-hydroxyazetidin-1-yl)quinolin-6-yl]methyl}pyrrolidin-3-yl]oxy}-1-oxo-2,3-dihydro-1H-isoindol-2-yl)piperidine-2,6-dione]",26.8,13.6,34,14.1
"COC1CN(c2ccc3cc(CN4CC[C@H](Oc5ccc6c(c5)CN(C5CCC(=O)NC5=O)C6=O)C4)ccc3n2)C1 (stereo partly drawn) [3-(5-{[(3S)-1-{[2-(3-methoxyazetidin-1-yl)quinolin-6-yl]methyl}pyrrolidin-3-yl]oxy}-1-oxo-2,3-dihydro-1H-isoindol-2-yl)piperidine-2,6-dione]",6.82,11.6,36,2.3
"O=C1CCC(N2Cc3cc(O[C@H]4CCN(Cc5ccc6nc(N7CCC(F)(F)CC7)ccc6c5)C4)ccc3C2=O)C(=O)N1 (stereo partly drawn) [3-(5-{[(3S)-1-{[2-(4,4-difluoropiperidin-1-yl)quinolin-6-yl]methyl}pyrrolidin-3-yl]oxy}-1-oxo-2,3-dihydro-1H-isoindol-2-yl)piperidine-2,6-dione]",17.9,17.9,21.62,38.4
"CC1(C)CC(=O)N(c2ccc3cc(CN4CC[C@H](Oc5ccc6c(c5)CN(C5CCC(=O)NC5=O)C6=O)C4)ccc3n2)C1 (stereo partly drawn) [3-(5-{[(3S)-1-{[2-(4,4-dimethyl-2-oxopyrrolidin-1-yl)quinolin-6-yl]methyl}pyrrolidin-3-yl]oxy}-1-oxo-2,3-dihydro-1H-isoindol-2-yl)piperidine-2,6-dione]",2.77,8.145,31,1.58
"O=C1CCC(N2Cc3cc(O[C@H]4CCN(Cc5ccc6nc(C7(O)CCOCC7)ccc6c5)C4)ccc3C2=O)C(=O)N1 (stereo partly drawn) [3-(5-{[(3S)-1-{[2-(4-hydroxyoxan-4-yl)quinolin-6-yl]methyl}pyrrolidin-3-yl]oxy}-1-oxo-2,3-dihydro-1H-isoindol-2-yl)piperidine-2,6-dione]",7.41,6.55,31.5,8.84
"O=C1CCC(N2Cc3cc(O[C@H]4CCN(Cc5ccc6nc(N7CCC(O)CC7)ccc6c5)C4)ccc3C2=O)C(=O)N1 (stereo partly drawn) [3-(5-{[(3S)-1-{[2-(4-hydroxypiperidin-1-yl)quinolin-6-yl]methyl}pyrrolidin-3-yl]oxy}-1-oxo-2,3-dihydro-1H-isoindol-2-yl)piperidine-2,6-dione]",6.59,9.69,34.5,2.86
"COC1CCN(c2ccc3cc(CN4CC[C@H](Oc5ccc6c(c5)CN(C5CCC(=O)NC5=O)C6=O)C4)ccc3n2)CC1 (stereo partly drawn) [3-(5-{[(3S)-1-{[2-(4-methoxypiperidin-1-yl)quinolin-6-yl]methyl}pyrrolidin-3-yl]oxy}-1-oxo-2,3-dihydro-1H-isoindol-2-yl)piperidine-2,6-dione]",3.75,9.39,30.5,2.49
"CC1(c2ccc3cc(CN4CC[C@H](Oc5ccc6c(c5)CN(C5CCC(=O)NC5=O)C6=O)C4)ccc3n2)CCOCC1 (stereo partly drawn) [3-(5-{[(3S)-1-{[2-(4-methyloxan-4-yl)quinolin-6-yl]methyl}pyrrolidin-3-yl]oxy}-1-oxo-2,3-dihydro-1H-isoindol-2-yl)piperidine-2,6-dione]",4.03,10.29,32,1.99
"CN1CCN(c2ccc3cc(CN4CC[C@H](Oc5ccc6c(c5)CN(C5CCC(=O)NC5=O)C6=O)C4)ccc3n2)CC1 (stereo partly drawn) [3-(5-{[(3S)-1-{[2-(4-methylpiperazin-1-yl)quinolin-6-yl]methyl}pyrrolidin-3-yl]oxy}-1-oxo-2,3-dihydro-1H-isoindol-2-yl)piperidine-2,6-dione]",20,13.365,33.5,6.77
"O=C1CCC(N2Cc3cc(O[C@H]4CCN(Cc5ccc6nc(N7CCC7)ccc6c5)C4)ccc3C2=O)C(=O)N1 (stereo partly drawn) [3-(5-{[(3S)-1-{[2-(azetidin-1-yl)quinolin-6-yl]methyl}pyrrolidin-3-yl]oxy}-1-oxo-2,3-dihydro-1H-isoindol-2-yl)piperidine-2,6-dione]",6.71,10.91,37,3.01
"O=C1CCC(N2Cc3cc(O[C@H]4CCN(Cc5ccc6nc(C(F)F)ccc6c5)C4)ccc3C2=O)C(=O)N1 (stereo partly drawn) [3-(5-{[(3S)-1-{[2-(difluoromethyl)quinolin-6-yl]methyl}pyrrolidin-3-yl]oxy}-1-oxo-2,3-dihydro-1H-isoindol-2-yl)piperidine-2,6-dione]",7.17,9.875,29.42,2.96
"CN(C)c1ccc2cc(CN3CC[C@H](Oc4ccc5c(c4)CN(C4CCC(=O)NC4=O)C5=O)C3)ccc2n1 (stereo partly drawn) [3-(5-{[(3S)-1-{[2-(dimethylamino)quinolin-6-yl]methyl}pyrrolidin-3-yl]oxy}-1-oxo-2,3-dihydro-1H-isoindol-2-yl)piperidine-2,6-dione]",20,12.34,26.59,2.71
"O=C1CCC(N2Cc3cc(O[C@H]4CCN(Cc5ccc6nc(CF)ccc6c5)C4)ccc3C2=O)C(=O)N1 (stereo partly drawn) [3-(5-{[(3S)-1-{[2-(fluoromethyl)quinolin-6-yl]methyl}pyrrolidin-3-yl]oxy}-1-oxo-2,3-dihydro-1H-isoindol-2-yl)piperidine-2,6-dione]",11.8,10.025,26.21,1.62
"O=C1CCC(N2Cc3cc(O[C@H]4CCN(Cc5ccc6nc(CO)ccc6c5)C4)ccc3C2=O)C(=O)N1 (stereo partly drawn) [3-(5-{[(3S)-1-{[2-(hydroxymethyl)quinolin-6-yl]methyl}pyrrolidin-3-yl]oxy}-1-oxo-2,3-dihydro-1H-isoindol-2-yl)piperidine-2,6-dione]",54.4,11.84,31.475,9.39
